In patent publication US20160186067A1, “METHODS AND SYSTEMS FOR […]” (SHELL OIL COMPANY, priority 2014, published 2016):

Test: Partitioning of reaction intermediates and solvents between upper toluene-rich and lower aqueous phases (toluene extraction)
Conditions: for Kow UL/LL (partition coefficients for toluene extraction): upper toluene-rich layer / lower aqueous-rich layer, toluene added to reactor product of wood digestion, stirred at 150° C. for 2 hours, then cooled and decanted; for Phase preference in toluene extraction: upper organic vs lower aqueous phase, Example 2
Protocol: The injector temperature was set at 250° C., and the detector temperature was set at 300° C. A range of alkanes, ketone and aldehyde monooxygenates as well as residual glycol intermediates including ethylene glycol (EG), 1,2-propylene glycol (PG) and glycerol were observed, along with phenolic components from the initial charge of solvent, and those formed in reaction.
Reaction cycles entailed 1 hour at 160° C., followed by 1 hour at 190° C., followed by 3 hours at 240° C. Six cycles of wood addition were effected, followed by heating overnight at 270° C. under 52 bar of H2 to complete the conversion of intermediates.
Stirring was then stopped, and the reactor was allowed to cool. […] Catalyst was left on the reactor bottom.

Compound	Kow UL/LL (partition coefficients for toluene extraction)	Phase preference in toluene extraction
OCCO [EG, ethylene glycol]	0.42	–
CCCc1ccc(O)c(OC)c1 [MPP, 2-methoxy-4-propylphenol]	33.59	highly favored the upper organic-rich phase
CC(O)CO (stereo not drawn) [PG, 1,2-propylene glycol]	5.09	–
Cc1cccc(C)c1O [xylenol, 2,6-xylenol]	51.79	highly favored the upper organic-rich phase
